According to ChEMBL document CHEMBL1158633, “Synthesis and biological activity of alpha-glucosyl C24:0 and C20:2 ceramides” (2010):

test system: iNKT; assay: Induction of cellular expansion in human iNKT cells at 250 nM after 8 days; assay type: functional

First: CCCCC/C=C\C/C=C\CCCCCCCCCC(=O)N[C@@H](CO[C@H]1O[C@H](CO)[C@@H](O)[C@H](O)[C@H]1O)[C@H](O)[C@H](O)CCCCCCCCCCCCCC
Second: CCCCC/C=C\C/C=C\CCCCCCCCCC(=O)N[C@@H](CO[C@H]1O[C@H](CO)[C@H](O)[C@H](O)[C@H]1O)[C@H](O)[C@H](O)CCCCCCCCCCCCCC
The Activity of the first is lower: 33% for the first, 37% for the second.

In the case of `CCCCCCCCCCCCCCCCCCCCCCCCCC(=O)N[C@@H](CO[C@H]1O[C@H](CO)[C@H](O)[C@H](O)[C@H]1O)[C@H](O)[C@H](O)CCCCCCCCCCCCCC` [RGI-7000], the Activity is reported as 34%.
